Source: the NIST ThermoML archive (doi:10.1021/acs.jced.6b00606)
± gives the expanded uncertainty stated by the source.

Assay: xn = mol fraction of the nth substance listed
Conditions: 100 kPa, Liquid; for speed of sound: Frequency=3 MHz, Sing-around technique in a fixed-path interferometer; for mass density: Vibrating tube method

O=C1CCCCCC1 [cycloheptanone] + C1COCCO1
Conditions | mass density, 293.15 K [kg/m3] | mass density, 298.15 K [kg/m3] | mass density, 303.15 K [kg/m3] | mass density, 308.15 K [kg/m3] | speed of sound, 293.15 K [m/s] | speed of sound, 298.15 K [m/s] | speed of sound, 303.15 K [m/s] | speed of sound, 308.15 K [m/s]
x2 = 0.0954 | 957.02 ± 1 | 952.54 ± 1 | 948.07 ± 1 | 943.61 ± 1 | 1466.3 ± 1.6 | 1444.4 ± 1.6 | 1422.1 ± 1.6 | 1399.7 ± 1.6
x2 = 0.1589 | 960.61 ± 1 | 956.03 ± 1 | 951.46 ± 1 | 946.89 ± 1 | 1459.2 ± 1.6 | 1437.4 ± 1.6 | 1415.3 ± 1.6 | 1393 ± 1.6
x2 = 0.2184 | 964.09 ± 1 | 959.46 ± 1 | 954.81 ± 1 | 950.18 ± 1 | 1452.6 ± 1.6 | 1430.9 ± 1.6 | 1408.9 ± 1.6 | 1386.7 ± 1.6
x2 = 0.2555 | 966.35 ± 1 | 961.68 ± 1 | 956.99 ± 1 | 952.32 ± 1 | 1448.6 ± 1.6 | 1426.9 ± 1.6 | 1404.9 ± 1.6 | 1382.8 ± 1.6
x2 = 0.3019 | 969.25 ± 1 | 964.56 ± 1 | 959.82 ± 1 | 955.1 ± 1 | 1443.6 ± 1.6 | 1421.9 ± 1.6 | 1400 ± 1.6 | 1377.9 ± 1.6
x2 = 0.3487 | 972.3 ± 1 | 967.57 ± 1 | 962.78 ± 1 | 958.02 ± 1 | 1438.6 ± 1.6 | 1416.9 ± 1.6 | 1395.1 ± 1.6 | 1373 ± 1.6
x2 = 0.3814 | 974.5 ± 1 | 969.75 ± 1 | 964.92 ± 1 | 960.13 ± 1 | 1435.1 ± 1.6 | 1413.4 ± 1.6 | 1391.6 ± 1.6 | 1369.6 ± 1.6
x2 = 0.4324 | 978.07 ± 1 | 973.27 ± 1 | 968.38 ± 1 | 963.54 ± 1 | 1429.7 ± 1.6 | 1408 ± 1.6 | 1386.3 ± 1.6 | 1364.3 ± 1.6
x2 = 0.4879 | 982.15 ± 1 | 977.29 ± 1 | 972.33 ± 1 | 967.42 ± 1 | 1423.8 ± 1.6 | 1402.2 ± 1.6 | 1380.5 ± 1.6 | 1358.5 ± 1.6
x2 = 0.5219 | 984.76 ± 1 | 979.85 ± 1 | 974.85 ± 1 | 969.89 ± 1 | 1420.3 ± 1.6 | 1398.7 ± 1.6 | 1377 ± 1.5 | 1355 ± 1.5
x2 = 0.5723 | 988.81 ± 1 | 983.82 ± 1 | 978.74 ± 1 | 973.7 ± 1 | 1415 ± 1.5 | 1393.4 ± 1.5 | 1371.8 ± 1.5 | 1349.9 ± 1.5
x2 = 0.6149 | 992.39 ± 1 | 987.32 ± 1 | 982.17 ± 1 | 977.06 ± 1 | 1410.5 ± 1.5 | 1388.9 ± 1.5 | 1367.4 ± 1.5 | 1345.5 ± 1.5
x2 = 0.6687 | 997.15 ± 1 | 991.96 ± 1 | 986.73 ± 1 | 981.52 ± 1 | 1404.8 ± 1.5 | 1383.3 ± 1.5 | 1361.7 ± 1.5 | 1339.9 ± 1.5
x2 = 0.7104 | 1001 ± 1 | 995.75 ± 1 | 990.44 ± 1 | 985.15 ± 1 | 1400.4 ± 1.5 | 1378.9 ± 1.5 | 1357.4 ± 1.5 | 1335.6 ± 1.5
x2 = 0.7489 | 1004.7 ± 1 | 999.41 ± 1 | 994.03 ± 1 | 988.66 ± 1 | 1396.3 ± 1.5 | 1374.7 ± 1.5 | 1353.3 ± 1.5 | 1331.5 ± 1.5
x2 = 0.7919 | 1009.2 ± 1 | 1003.7 ± 1 | 998.23 ± 1 | 992.77 ± 1 | 1391.6 ± 1.5 | 1370.1 ± 1.5 | 1348.6 ± 1.5 | 1326.9 ± 1.5
x2 = 0.8475 | 1015.1 ± 1 | 1009.5 ± 1 | 1004 ± 1 | 998.45 ± 1 | 1385.4 ± 1.5 | 1363.9 ± 1.5 | 1342.5 ± 1.5 | 1320.7 ± 1.5
x2 = 0.9018 | 1021.3 ± 1 | 1015.6 ± 1 | 1010.1 ± 1 | 1004.4 ± 1 | 1379.3 ± 1.5 | 1357.8 ± 1.5 | 1336.3 ± 1.5 | 1314.5 ± 1.5

O=C1CCCCC1 [cyclohexanone] + C1CCOCC1
Conditions | mass density, 293.15 K [kg/m3] | mass density, 298.15 K [kg/m3] | mass density, 303.15 K [kg/m3] | mass density, 308.15 K [kg/m3] | speed of sound, 293.15 K [m/s] | speed of sound, 298.15 K [m/s] | speed of sound, 303.15 K [m/s] | speed of sound, 308.15 K [m/s]
x2 = 0.1175 | 941.72 ± 1 | 937.26 ± 1 | 932.48 ± 1 | 927.65 ± 1 | 1411.4 ± 1.3 | 1394.5 ± 1.3 | 1373.6 ± 1.3 | 1353.2 ± 1.3
x2 = 0.1586 | 939.66 ± 1 | 935.2 ± 1 | 930.42 ± 1 | 925.6 ± 1 | 1404.6 ± 1.3 | 1387.3 ± 1.3 | 1366.3 ± 1.3 | 1345.6 ± 1.3
x2 = 0.1952 | 937.78 ± 1 | 933.32 ± 1 | 928.55 ± 1 | 923.74 ± 1 | 1398.7 ± 1.3 | 1381 ± 1.3 | 1359.7 ± 1.3 | 1339.1 ± 1.3
x2 = 0.2471 | 935.05 ± 1 | 930.59 ± 1 | 925.82 ± 1 | 921.01 ± 1 | 1390.5 ± 1.3 | 1372.1 ± 1.3 | 1350.7 ± 1.3 | 1329.8 ± 1.3
x2 = 0.2843 | 933.05 ± 1 | 928.59 ± 1 | 923.82 ± 1 | 919.01 ± 1 | 1384.6 ± 1.3 | 1365.8 ± 1.3 | 1344.4 ± 1.3 | 1323.4 ± 1.3
x2 = 0.3396 | 930 ± 1 | 925.53 ± 1 | 920.76 ± 1 | 915.96 ± 1 | 1376.1 ± 1.3 | 1356.7 ± 1.3 | 1335.2 ± 1.3 | 1314 ± 1.3
x2 = 0.3784 | 927.8 ± 1 | 923.32 ± 1 | 918.56 ± 1 | 913.76 ± 1 | 1370.3 ± 1.3 | 1350.6 ± 1.3 | 1328.9 ± 1.3 | 1307.6 ± 1.3
x2 = 0.4178 | 925.53 ± 1 | 921.03 ± 1 | 916.26 ± 1 | 911.46 ± 1 | 1364.5 ± 1.3 | 1344.5 ± 1.3 | 1322.6 ± 1.3 | 1301.2 ± 1.3
x2 = 0.462 | 922.91 ± 1 | 918.41 ± 1 | 913.62 ± 1 | 908.82 ± 1 | 1358.2 ± 1.3 | 1337.8 ± 1.3 | 1315.8 ± 1.3 | 1294.2 ± 1.3
x2 = 0.5009 | 920.56 ± 1 | 916.03 ± 1 | 911.24 ± 1 | 906.44 ± 1 | 1352.6 ± 1.3 | 1332.1 ± 1.3 | 1309.9 ± 1.3 | 1288.3 ± 1.3
x2 = 0.5486 | 917.59 ± 1 | 913.03 ± 1 | 908.24 ± 1 | 903.43 ± 1 | 1346.1 ± 1.3 | 1325.3 ± 1.3 | 1302.9 ± 1.3 | 1281.1 ± 1.3
x2 = 0.5814 | 915.51 ± 1 | 910.91 ± 1 | 906.13 ± 1 | 901.31 ± 1 | 1341.7 ± 1.4 | 1320.7 ± 1.3 | 1298.2 ± 1.3 | 1276.3 ± 1.3
x2 = 0.6379 | 911.8 ± 1 | 907.17 ± 1 | 902.35 ± 1 | 897.53 ± 1 | 1334.3 ± 1.4 | 1313.2 ± 1.3 | 1290.3 ± 1.3 | 1268.3 ± 1.3
x2 = 0.6899 | 908.28 ± 1 | 903.58 ± 1 | 898.75 ± 1 | 893.91 ± 1 | 1327.7 ± 1.4 | 1306.4 ± 1.4 | 1283.4 ± 1.3 | 1261.3 ± 1.3
x2 = 0.7389 | 904.83 ± 1 | 900.08 ± 1 | 895.23 ± 1 | 890.37 ± 1 | 1321.7 ± 1.4 | 1299.7 ± 1.4 | 1277 ± 1.3 | 1254.8 ± 1.3
x2 = 0.7804 | 901.82 ± 1 | 897.02 ± 1 | 892.14 ± 1 | 887.26 ± 1 | 1316.8 ± 1.4 | 1294.6 ± 1.4 | 1271.8 ± 1.3 | 1249.6 ± 1.3
x2 = 0.8345 | 897.76 ± 1 | 892.89 ± 1 | 887.96 ± 1 | 883.04 ± 1 | 1310.6 ± 1.4 | 1288.1 ± 1.4 | 1265.3 ± 1.4 | 1242.9 ± 1.3
x2 = 0.8929 | 893.19 ± 1 | 888.23 ± 1 | 883.23 ± 1 | 878.25 ± 1 | 1304.1 ± 1.4 | 1281.4 ± 1.4 | 1258.5 ± 1.4 | 1236.1 ± 1.3
